The source made the active and inactive calls. No cut-off for these calls is given here.
Key:
Rattus norvegicus [1] = assay: Dose required to produce 50% hallucinogenic potency in rat was determined at a dose of 0.5 mg/kg; type: functional
Rattus norvegicus [2] = assay: Dose required to produce 50% hallucinogenic potency in rat was determined at a dose of 0.25 mg/kg; type: functional
Rattus norvegicus [3] = assay: Dose required to produce 50% hallucinogenic potency in rat was determined at a dose of 0.125 mg/kg; type: functional
Rattus norvegicus [4] = assay: Number of rats responding out of 5 treated rats at a dose of 0.75 mg/Kg; type: functional
Rattus norvegicus [5] = assay: Dose required to produce 50% hallucinogenic potency in rat was determined at a dose of 0.75 mg/kg; type: functional
Rattus norvegicus [6] = species on record: Rattus norvegicus; assay: Dose at which the rats perform 50% appropriate drug -lever responding was determined; type: functional
[7] = molecular target: Serotonin (5-HT) receptor; assay: Binding affinity at rat 5-hydroxytryptamine receptor.; type: protein assay
Rattus norvegicus [8] = assay: Number of rats responding out of 5 treated rats at a dose of 0.5 mg/Kg; type: functional
Rattus norvegicus [9] = assay: Number of rats responding out of 5 treated rats at a dose of 0.25 mg/Kg; type: functional
Rattus norvegicus [10] = assay: Number of rats responding out of 5 treated rats at a dose of 0.125 mg/Kg; type: functional
Rattus norvegicus [11] = assay: Dose required to produce 50% hallucinogenic potency in rat was determined at a dose of 1 mg/kg; type: functional
Homo sapiens = species on record: Homo sapiens; assay: Hallucinogenic potency was determined in humans; type: functional
Rattus norvegicus [12] = assay: Number of rats responding out of 5 treated rats at a dose of 1 mg/Kg; type: functional
Rattus norvegicus [13] = assay: Dose required to produce 50% hallucinogenic potency in rat was determined at a dose of 3.5 mg/kg; type: functional
Rattus norvegicus [14] = assay: Dose required to produce 50% hallucinogenic potency in rat was determined at a dose of 5.5 mg/kg; type: functional
Rattus norvegicus [15] = assay: Number of rats responding out of 5 treated rats at a dose of 4 mg/Kg; type: functional
Rattus norvegicus [16] = assay: Dose required to produce 50% hallucinogenic potency in rat was determined at a dose of 3.0 mg/kg; type: functional
Rattus norvegicus [17] = assay: Number of rats responding out of 5 treated rats at a dose of 3.5 mg/Kg; type: functional
Rattus norvegicus [18] = assay: Dose required to produce 50% hallucinogenic potency in rat was determined at a dose of 4 mg/kg; type: functional
Rattus norvegicus [19] = assay: Number of rats responding out of 5 treated rats at a dose of 5.5 mg/Kg; type: functional
Rattus norvegicus [20] = assay: Number of rats responding out of 5 treated rats at a dose of 5 mg/Kg; type: functional
Rattus norvegicus [21] = assay: Dose required to produce 50% hallucinogenic potency in rat was determined at a dose of 5.0 mg/kg; type: functional
Rattus norvegicus [22] = assay: Dose required to produce 50% hallucinogenic potency in rat was determined at a dose of 0.15 mg/kg; type: functional
Rattus norvegicus [23] = assay: Dose required to produce 50% hallucinogenic potency in rat was determined at a dose of 0.2 mg/kg; type: functional
Rattus norvegicus [24] = assay: Dose required to produce 50% hallucinogenic potency in rat was determined at a dose of 0.1 mg/kg; type: functional
Rattus norvegicus [25] = assay: Number of rats responding out of 5 treated rats at a dose of 0.15 mg/Kg; type: functional
Rattus norvegicus [26] = assay: Number of rats responding out of 5 treated rats at a dose of 0.20 mg/Kg; type: functional
Rattus norvegicus [27] = assay: Number of rats responding out of 5 treated rats at a dose of 0.10 mg/Kg; type: functional
Rattus norvegicus [28] = assay: Dose required to produce 50% hallucinogenic potency in rat was determined at a dose of 1.5 mg/kg; type: functional
Rattus norvegicus [29] = assay: Number of rats responding out of 5 treated rats at a dose of 1.5 mg/Kg; type: functional
Rattus norvegicus [30] = assay: Number of rats responding out of 5 treated rats at a dose of 2 mg/Kg; type: functional
Rattus norvegicus [31] = assay: Dose required to produce 50% hallucinogenic potency in rat was determined at a dose of 3 mg/kg; type: functional
Rattus norvegicus [32] = assay: Number of rats responding out of 5 treated rats at a dose of 3 mg/Kg; type: functional
Rattus norvegicus [33] = assay: Dose required to produce 50% hallucinogenic potency in rat was determined at a dose of 4 mg/kg; Disruption behavior; type: functional, organism-based; parameters: dose 4 mg/kg
Rattus norvegicus [34] = assay: Dose required to produce 50% hallucinogenic potency in rat was determined at a dose of 2 mg/kg; type: functional
Rattus norvegicus [35] = assay: Dose required to produce 50% hallucinogenic potency in rat was determined at a dose of 5 mg/kg; type: functional
Rattus norvegicus [36] = assay: Number of rats responding out of 5 treated rats at a dose of 9 mg/Kg; type: functional
Rattus norvegicus [37] = assay: Dose required to produce 50% hallucinogenic potency in rat was determined at a dose of 2.0 mg/kg; type: functional
Rattus norvegicus [38] = assay: Number of rats responding out of 5 treated rats at a dose of 10 mg/Kg; type: functional
Rattus norvegicus [39] = assay: Dose required to produce 50% hallucinogenic potency in rat was determined at a dose of 9 mg/kg; type: functional
Rattus norvegicus [40] = assay: Dose required to produce 50% hallucinogenic potency in rat was determined at a dose of 8 mg/kg; type: functional
Rattus norvegicus [41] = assay: Number of rats responding out of 5 treated rats at a dose of 8 mg/Kg; type: functional
Rattus norvegicus [42] = assay: Dose required to produce 50% hallucinogenic potency in rat was determined at a dose of 2 mg/kg; Disruption behavior; type: functional, organism-based; parameters: dose 2 mg/kg
Rattus norvegicus [43] = assay: Dose required to produce 50% hallucinogenic potency in rat was determined at a dose of 3 mg/kg; Disruption behavior; type: functional, organism-based; parameters: dose 3 mg/kg
Rattus norvegicus [44] = assay: Dose required to produce 50% hallucinogenic potency in rat was determined at a dose of 2.5 mg/kg; type: functional
Rattus norvegicus [45] = assay: Number of rats responding out of 5 treated rats at a dose of 2.5 mg/Kg; type: functional

## COc1cc(C[C@@H](C)N)c(OC)cc1I
Rattus norvegicus [1]
  DOM: 75%
Rattus norvegicus [2]
  DOM: 47%
Rattus norvegicus [3]
  DOM: 18%
Rattus norvegicus [4]
  No. of animals: 5
Rattus norvegicus [5]
  DOM: 96%
Rattus norvegicus [6]
  ED50: 0.26 mg/kg
[7]
  pA2: 7.63
Rattus norvegicus [8]
  No. of animals: 5
Rattus norvegicus [9]
  No. of animals: 5
Rattus norvegicus [10]
  No. of animals: 5

## COc1cc(CC(C)N)c(OC)cc1I (racemic)
Rattus norvegicus [1]
  DOM: 41%
Rattus norvegicus [2]
  DOM: 31%
Rattus norvegicus [11]
  DOM: 93%
Homo sapiens
  HHP: 0.8 mg
Rattus norvegicus [4]
  No. of animals: 5
Rattus norvegicus [12]
  No. of animals: 5
Rattus norvegicus [5]
  DOM: 80%
Rattus norvegicus [6]
  ED50: 0.42 mg/kg
[7]
  pA2: 7.49
Rattus norvegicus [8]
  No. of animals: 5
Rattus norvegicus [9]
  No. of animals: 5

## COc1cc(OC)c(OC)cc1CC(C)N (racemic)
Rattus norvegicus [13]
  DOM: 59%
Rattus norvegicus [14]
  DOM: 90%
Rattus norvegicus [15]
  No. of animals: 5
Rattus norvegicus [16]
  DOM: 20%
Rattus norvegicus [17]
  No. of animals: 5
Rattus norvegicus [18]
  DOM: 70%
Homo sapiens
  HHP: 20 mg
Rattus norvegicus [6]
  ED50: 3.59 mg/kg
Rattus norvegicus [19]
  No. of animals: 6
Rattus norvegicus [20]
  No. of animals: 5
Rattus norvegicus [21]
  DOM: 81%

## COc1cc(C[C@@H](C)N)c(OC)cc1Br
Rattus norvegicus [22]
  DOM: 79%
Rattus norvegicus [23]
  DOM: 91%
Rattus norvegicus [24]
  DOM: 47%
Rattus norvegicus [25]
  No. of animals: 5
Rattus norvegicus [26]
  No. of animals: 5
Homo sapiens
  HHP: 0.4 mg
Rattus norvegicus [27]
  No. of animals: 5
Rattus norvegicus [6]
  ED50: 0.1 mg/kg

## COc1cc(CC(C)N)c(OC)cc1C (racemic) [DOM]
Rattus norvegicus [16]
  ED50: 0.44 mg/kg
Homo sapiens
  HHP: 2 mg

## COc1cc([N+](=O)[O-])c(OC)cc1CC(C)N (racemic)
Rattus norvegicus [1]
  DOM: 32%
Rattus norvegicus [11]
  DOM: 55%
Rattus norvegicus [12]
  No. of animals: 4
Rattus norvegicus [6]
  ED50: 0.76 mg/kg
[7]
  pA2: 7.07
Rattus norvegicus [8]
  No. of animals: 5
Rattus norvegicus [28]
  DOM: 87%
Rattus norvegicus [29]
  No. of animals: 5

## COc1ccc(OC)c(CC(C)N)c1 (racemic)
Rattus norvegicus [16]
  ED50: 5.51 mg/kg
Homo sapiens
  HHP: 50 mg

## COc1ccccc1CC(C)N (racemic)
Rattus norvegicus [30]
  No. of animals: 5
Rattus norvegicus [31]
  DOM: 7%
Rattus norvegicus [15]
  No. of animals: 2
Rattus norvegicus [32]
  No. of animals: 4
Rattus norvegicus [33]
  DOM: inactive
Rattus norvegicus [34]
  DOM: 2%

## COc1cc(Br)c(OC)c(CC(C)N)c1 (racemic)
Rattus norvegicus [30]
  No. of animals: 5
Rattus norvegicus [31]
  DOM: 0%
Rattus norvegicus [32]
  No. of animals: 4
Rattus norvegicus [11]
  DOM: 2%
Rattus norvegicus [12]
  No. of animals: 5
Rattus norvegicus [34]
  DOM: 3%

## COc1cc(CC(C)N)c(OC)cc1Br (racemic) [BROLAMFETAMINE]
Rattus norvegicus [1]
  DOM: 91%
Rattus norvegicus [2]
  DOM: 70%
Rattus norvegicus [3]
  DOM: 18%
Rattus norvegicus [23]
  DOM: 51%
Rattus norvegicus [26]
  No. of animals: 5
Homo sapiens
  HHP: 0.8 mg
Rattus norvegicus [6]
  ED50: 0.2 mg/kg
Rattus norvegicus [8]
  No. of animals: 5
Rattus norvegicus [9]
  No. of animals: 5
Rattus norvegicus [10]
  No. of animals: 5

## COc1ccc(CC(C)N)cc1 (racemic) [PARA-METHOXYAMPHETAMINE]
Rattus norvegicus [1]
  DOM: 13%
Rattus norvegicus [11]
  DOM: 15%
Rattus norvegicus [12]
  No. of animals: 4
Rattus norvegicus [33]
  DOM: inactive
Rattus norvegicus [8]
  No. of animals: 5
Rattus norvegicus [29]
  No. of animals: 2

## CCOc1cc(OC)c(CC(C)N)cc1OC (racemic)
Rattus norvegicus [30]
  No. of animals: 5
Rattus norvegicus [35]
  DOM: 16%
Rattus norvegicus [36]
  No. of animals: 4
Homo sapiens
  HHP: 30 mg
Rattus norvegicus [37]
  DOM: 2%
Rattus norvegicus [38]
  No. of animals: 1
Rattus norvegicus [39]
  DOM: 85%
Rattus norvegicus [6]
  ED50: 6.33 mg/kg
[7]
  pA2: 6.78
Rattus norvegicus [40]
  DOM: 68%
Rattus norvegicus [41]
  No. of animals: 5
Rattus norvegicus [20]
  No. of animals: 5

## COc1ccc(C[C@@H](C)N)cc1
Rattus norvegicus [1]
  DOM: 18%
Rattus norvegicus [11]
  DOM: 20%
Rattus norvegicus [12]
  No. of animals: 3
Rattus norvegicus [33]
  DOM: inactive
Rattus norvegicus [8]
  No. of animals: 5
Rattus norvegicus [29]
  No. of animals: 1

## CC(N)Cc1ccccc1 (racemic) [AMPHETAMINE]
Rattus norvegicus [30]
  No. of animals: 1
Rattus norvegicus [32]
  No. of animals: 0
Rattus norvegicus [42]
  DOM: inactive
Rattus norvegicus [43]
  DOM: inactive
Rattus norvegicus [11]
  DOM: 2%
Rattus norvegicus [12]
  No. of animals: 5
Rattus norvegicus [28]
  DOM: 26%
Rattus norvegicus [29]
  No. of animals: 3

## COc1cc(CC(C)N)c(OC)cc1F (racemic)
Rattus norvegicus [1]
  DOM: 6%
Rattus norvegicus [31]
  DOM: 88%
Rattus norvegicus [44]
  DOM: 66%
Rattus norvegicus [45]
  No. of animals: 5
Rattus norvegicus [11]
  DOM: 43%
Rattus norvegicus [4]
  No. of animals: 5
Rattus norvegicus [12]
  No. of animals: 5
Rattus norvegicus [5]
  DOM: 25%
Rattus norvegicus [6]
  ED50: 1.45 mg/kg
[7]
  pA2: 7.2
Rattus norvegicus [8]
  No. of animals: 5
Rattus norvegicus [28]
  DOM: 45%

## COc1cc([N+](=O)[O-])c(OC)cc1C[C@@H](C)N
Rattus norvegicus [1]
  DOM: 44%
Rattus norvegicus [11]
  DOM: 93%
Rattus norvegicus [4]
  No. of animals: 5
Rattus norvegicus [12]
  No. of animals: 5
Rattus norvegicus [5]
  DOM: 61%
Rattus norvegicus [6]
  ED50: 0.57 mg/kg
[7]
  pA2: 7.49
Rattus norvegicus [8]
  No. of animals: 5

## CCc1cc(OC)c(CC(C)N)cc1OC (racemic)
Rattus norvegicus [1]
  DOM: 99%
Rattus norvegicus [2]
  DOM: 44%
Rattus norvegicus [3]
  DOM: 10%
Homo sapiens
  HHP: 1.5 mg
Rattus norvegicus [6]
  ED50: 0.23 mg/kg
Rattus norvegicus [8]
  No. of animals: 5
Rattus norvegicus [9]
  No. of animals: 5
Rattus norvegicus [10]
  No. of animals: 5

## COc1cc(C[C@H](C)N)c(OC)cc1Br
Rattus norvegicus [1]
  DOM: 20%
Homo sapiens
  HHP: 4 mg
Rattus norvegicus [4]
  No. of animals: 5
Rattus norvegicus [5]
  DOM: 35%
Rattus norvegicus [6]
  ED50: 0.81 mg/kg
Rattus norvegicus [8]
  No. of animals: 5
Rattus norvegicus [28]
  DOM: 96%
Rattus norvegicus [29]
  No. of animals: 5

## COc1cccc(CC(C)N)c1 (racemic)
Rattus norvegicus [30]
  No. of animals: 5
Rattus norvegicus [15]
  No. of animals: 3
Rattus norvegicus [18]
  DOM: 10%
Rattus norvegicus [33]
  DOM: inactive
Rattus norvegicus [34]
  DOM: 8%
Rattus norvegicus [20]
  No. of animals: 1
